Values quoted from earlier work in patent publication US9913917B2, “Biocompatible fluorescent metal oxide nanoparticles” (VisEn Medical, Inc., priority 2005, dated 2018).

Settings: free fluorochrome

Cy5.5
Absorbance max: 675 nm | εmax: 250,000 M^−1cm^−1
